Data published in patent US10709711B2 (G1 Therapeutics, Inc., priority 2013, dated 2020).
pEC50: −log10 of the molar value.

How the values were obtained:
[1] = tested on: Daudi (human B-lymphoblastoid cell from Burkitt's Lymphoma patient); assay: Inhibition of cellular proliferation, Daudi cells (CellTiter-Glo); assay type: cell-based; conditions: EC50 measured as illustrated in Example 150 (CellTiter-Glo)
Method: (§1) The SupT1 cells were seeded in Costar (Tewksbury, Mass.) 3093 96 well tissue culture treated white walled/clear bottom plates. A nine point dose response dilution series from 10 uM to 1 nM was performed and cell viability was determined after four days as indicated using the CellTiter-Glo® assay (CTG; Promega, Madison, Wis., United States of America) following the manufacturer's recommendations. Plates were read on a BioTek (Winooski, Vt.) Syngergy2 multi-mode plate reader. The Relative Light Units (RLU) were plotted as a result of variable molar concentration and data was analyzed using Graphpad (LaJolla, Calif.) Prism 5 statistical software to determine the IC50 for each compound.
(§2) The compounds listed in Table 1 were tested for the inhibition of cellular proliferation using SupT1 (human T-cell lymphoblastic leukemia) and Daudi (human B-lymphoblastoid cell from Burkitt's Lymphoma patient).

[2] = tested on: SupT1 cells (human T-cell lymphoblastic leukemia); assay: Inhibition of cellular proliferation, SupT1 cells (CellTiter-Glo); assay type: cell-based; conditions: SUP-T1, 96 h, cell viability after four days, nine point dilution series 10 uM to 1 nM
Method: as §1, §2

SMILES	pEC50 [1]	pEC50 [2]
CCC(C)CN1CCN(c2ccc(Nc3ncc4cc5n(c4n3)C3(CCCC3)CNC5=O)nc2)CC1 (stereo not shown) [AAA]	5.48	7.82
CC(C)N1CCN(c2ccc(Nc3ncc4cc5n(c4n3)C3(CCCCC3)CNC5=O)nc2)C[C@@H]1C [AA]	6.63	7.24
C[C@H](O)CN1CCN(c2ccc(Nc3ncc4cc5n(c4n3)C3(CCCCC3)CNC5=O)nc2)CC1 [A]	6.55	7.24
CN1CCN(C(=O)c2ccc(Nc3ncc4cc5n(c4n3)C3(CCCC3)CNC5=O)nc2)CC1 [BBB]	6.12	7.39
CC1(C)CN(c2ccc(Nc3ncc4cc5n(c4n3)C3(CCCCC3)CNC5=O)nc2)CCN1C1CC1 [BB]	6.33	7.15
C[C@H]1CN(c2ccc(Nc3ncc4cc5n(c4n3)C3(CCCCC3)CNC5=O)nc2)CCN1CC1CC1 [B]	6.41	7.02
CC(C)(C)CCN1CCN(c2ccc(Nc3ncc4cc5n(c4n3)C3(CCCC3)CNC5=O)nc2)CC1(C)C [CCC]	5.73	6.88
CCN(CC)C1CCN(c2ccc(Nc3ncc4cc5n(c4n3)C3(CCCCC3)CNC5=O)nc2)CC1 [CC]	6.95	7.77
C[C@H](O)CN1CCN(c2ccc(Nc3ncc4cc5n(c4n3)C3(CCCCC3)CNC5=O)nc2)C[C@@H]1C [C]	6.43	7.13
C[C@@H]1CN(c2ccc(Nc3ncc4cc5n(c4n3)C3(CCCC3)CNC5=O)nc2)C[C@H](C)N1 [DDD]	6.08	6.79
C[C@@H]1CN(c2ccc(Nc3ncc4cc5n(c4n3)C3(CCCCC3)CNC5=O)nc2)C[C@H](C)N1C [DD]	6.26	6.98
CN1CCN(c2ccc(Nc3ncc4cc5n(c4n3)C3(CCCCC3)CNC5=O)nc2)CC1(C)C [D]	6.53	7.26
CC(C)(O)CN1CCN(c2ccc(Nc3ncc4cc5n(c4n3)C3(CCCC3)CNC5=O)nc2)CC1 [EEE]	6.32	7.19
CC(C)N1CCN(Cc2ccc(Nc3ncc4cc5n(c4n3)C3(CCCCC3)CNC5=O)nc2)CC1 [EE]	6.59	7.05
CC(C)C1CN(c2ccc(Nc3ncc4cc5n(c4n3)C3(CCCCC3)CNC5=O)nc2)CCN1 (stereo not shown) [E]	6.85	8.03
CCN1[C@H](C)CN(c2ccc(Nc3ncc4cc5n(c4n3)C3(CCCCC3)CNC5=O)nc2)C[C@@H]1C [FF]	6.42	7.05
O=C1NCC2(CCCCC2)n2c1cc1cnc(Nc3ccc(N4CCN(C5CCC5)CC4)cn3)nc12 [F]	6.16	6.97
CC(C)N1CCN(c2ccc(Nc3ncc4cc5n(c4n3)C3(CCCC3)CNC5=O)nc2)CC1C (stereo not shown) [GGG]	6.23	6.79
CC(C)N1CCN(c2ccc(Nc3ncc4cc5n(c4n3)C3(CCCCC3)CNC5=O)nc2)CC1 [GG]		7.24
CC1CN(c2ccc(Nc3ncc4cc5n(c4n3)C3(CCCCC3)CNC5=O)nc2)CCN1CCC(C)(C)C (stereo not shown) [G]	5.82	6.81
O=C1NCC2(CCCC2)n2c1cc1cnc(Nc3ccc(N4CCC(N5CCCCC5)CC4)cn3)nc12 [HHH]	6.01	7.07
O=C1NCC2(CCCCC2)n2c1cc1cnc(Nc3ccc(N4CCN(CC5CC5)CC4)cn3)nc12 [HH]	6.17	7.10
CC1(C)CN(c2ccc(Nc3ncc4cc5n(c4n3)C3(CCCCC3)CNC5=O)nc2)CCN1CC1CC1 [H]	6.14	6.93
CC(C)N1CCN(c2ccc(Nc3ncc4cc5n(c4n3)C3(CCCC3)CNC5=O)nc2)CC1 [III]	6.11	6.64
CC(C)N1CCN(C(=O)c2ccc(Nc3ncc4cc5n(c4n3)C3(CCCCC3)CNC5=O)nc2)CC1 [II]	6.46	7.38
CC1(C)CN(c2ccc(Nc3ncc4cc5n(c4n3)C3(CCCCC3)CNC5=O)nc2)CCN1 [I]	6.60	7.41
CC1CN(c2ccc(Nc3ncc4cc5n(c4n3)C3(CCCC3)CNC5=O)nc2)CC(C)N1CCC(C)(C)C (stereo not shown) [PPP]		5.52
